Data: US20230241071A1, “COMBINATION TREATMENT OF LIVER DISORDERS” (Terns Pharmaceuticals, Inc., priority 2021, published 2023)
“Also recorded” adds a separate entry of the source. Values belong to the compound of their own block, whether it stands above or below them.

What was measured:
[1] = Approximate pKa; format: physicochemical
[2] = Multiple ascending doses of Compound 2 in healthy subjects with elevated LDL-c; format: in vivo, human; settings: 1, 3, 6, 10 mg QD 14 days
Description: Healthy volunteers with mildly elevated LDL-c were randomized 3:1 to Compound 2 (n=6) or placebo (n=2). Volunteers randomized to Compound 2 received multiple doses of 1, 3, 6 or 10 mg of Compound 2 once daily for 14 days in the MAD cohort of the study.

[3] = Mouse NASH model (high fat diet + CCl4), Compound 2; format: in vivo; settings: C57BL/6J, in vivo, oral; mouse model of NASH; read-out: threshold AUC achieving significant histological improvement
Description: (§1) C57BL/6J mice were fed a high fat diet for 10 weeks to induce obesity (>38 g BW). Obese mice were injected intraperitoneally (i.p.) twice a week for four weeks with 0.5 μl/g 25% CCl4 (formulated in olive oil) to induce fibrosis, and one group of normal BW mice were injected i.p. twice a week for four weeks with olive oil to serve as a healthy control. During the same dosing period, obese mice were fed orally once a day for 28 days with vehicle or varying doses of Compound 2. On CCl4 dosing days, CCl4 was administered at 4 hours post compound or vehicle dosing. On day 27, all animals were fasted for about 16 hours before terminal euthanasia. On day 28, all animals were sacrificed and various biological parameters were analyzed. Total body, liver, heart and brain weight were measured and changes in liver and heart weight were normalized using brain weight.
(§2) Liver samples were collected for whole transcriptome analysis by RNA sequencing (RNAseq). RNAseq library (n=5 per group) preparation and sequencing was performed using Illumina standard protocols. Alignment of sequencing reads was performed using STAR aligner software and read counts were estimated using RSEM. Differentially expressed genes (compared to vehicle-treated NASH control mice) were determined using EdgeR software. Gene ontology analysis was performed using Advaita software with fold-change and adjusted p-value cutoffs of >1.5 and <0.05, respectively. Gene ontologies were derived from the Gene Ontology Consortium database (2019 Apr. 26) (Ashburner et al., Gene ontology: Tool for the unification of biology. Nature Genetics 25(1): 25-9 (2000); Gene Ontology Consortium, Creating the Gene Ontology Resource: Design and Implementation. Genome Research 11: 1425-1433 (2001)).

[4] = test system: mouse NASH model; assay: as above; format: in vivo
Description: as §1, §2

[5] = Single-ascending dose trial of Compound 1 in healthy participants: safety and plasma PK
[6] = molecular target: T1, SSAO (Homo sapiens, UniProt Q16853); assay: Plasma SSAO activity and methylamine, multiple doses of Compound 1; format: in vivo
T1 construct: from tissue; host or cells: human plasma from dosed participants
T1 sequence (Q16853 29-763 limits assumed): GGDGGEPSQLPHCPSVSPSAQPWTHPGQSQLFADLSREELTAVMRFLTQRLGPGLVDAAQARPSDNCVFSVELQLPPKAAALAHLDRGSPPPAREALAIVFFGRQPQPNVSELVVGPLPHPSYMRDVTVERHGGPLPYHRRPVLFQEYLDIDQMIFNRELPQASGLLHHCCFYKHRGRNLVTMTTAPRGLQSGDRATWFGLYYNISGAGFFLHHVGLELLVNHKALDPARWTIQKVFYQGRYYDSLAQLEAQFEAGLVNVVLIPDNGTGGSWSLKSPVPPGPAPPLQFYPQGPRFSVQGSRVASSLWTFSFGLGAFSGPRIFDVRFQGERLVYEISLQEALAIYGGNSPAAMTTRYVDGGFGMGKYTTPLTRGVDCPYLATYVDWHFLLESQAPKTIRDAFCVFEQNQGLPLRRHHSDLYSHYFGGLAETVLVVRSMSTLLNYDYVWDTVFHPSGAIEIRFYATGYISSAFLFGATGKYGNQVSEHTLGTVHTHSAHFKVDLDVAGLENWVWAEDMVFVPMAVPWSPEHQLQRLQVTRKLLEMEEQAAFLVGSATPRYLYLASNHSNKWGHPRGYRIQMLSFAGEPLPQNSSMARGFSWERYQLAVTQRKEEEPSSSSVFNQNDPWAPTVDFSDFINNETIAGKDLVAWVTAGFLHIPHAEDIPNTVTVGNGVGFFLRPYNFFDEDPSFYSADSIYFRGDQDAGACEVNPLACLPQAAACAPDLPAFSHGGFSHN
Description: A multiple-ascending dose clinical trial of Compound 1 was performed.

[7] = molecular target: T2, VAP-1 (Homo sapiens, UniProt Q16853); assay: Compound 1 10 mg QD for 12 weeks in adults with non-cirrhotic NASH phenotype; format: in vivo
T2 construct: from tissue; host or cells: plasma of trial patients
T2 sequence (Q16853 29-763 limits assumed): T1 sequence (Q16853 29-763 limits assumed)

[8] = oral QD 28 days, all doses tested
[9] = all single-dose cohorts, 1-10 mg or placebo (n = 32)
[10] = single dose 1 mg or placebo (n = 8)
[11] = single dose 3 mg or placebo (n = 8)
[12] = single dose 6 mg or placebo (n = 8)
[13] = single dose 10 mg or placebo (n = 8)

SMILES: N#Cc1nn(-c2cc(Cl)c(Oc3n[nH]c(=O)c4ccccc34)c(Cl)c2)c(=O)[nH]c1=O [Compound 2, 2-(3,5-dichloro-4-((4-oxo-3,4-dihydrophthalazin-1-yl)oxy)phenyl)-3,5-dioxo-2,3,4,5-tetrahydro-1,2,4-triazine-6-carbonitrile]
pKa [1]: ~4.12
PK dose proportionality and variability [2]: dose-proportional PK with low variability
SHBG [2]: increased SHBG
circulating atherogenic lipid levels (LDL-c, Apo B, total cholesterol, triglycerides) [2]: significant decreases
free T4 [2]: Dose-dependent declines
safety and tolerability [2]: generally safe and well-tolerated
subjects with ALT increase to ≥2×ULN [2]: No subject
AUC [3]: 3320 ng·h/mL
expression of genes associated with collagen extracellular matrix and hepatic stellate cell activation ([4]; liver RNAseq vs NASH control mice): reducing their expression levels
liver inflammation (histology) ([4]; oral QD 28 days): trend in inflammation reduction
liver/brain weight ([4]; oral QD 28 days): significantly reduced
total body weight or heart/brain weight ([4]; oral QD 28 days): no effect
liver fibrosis (histology) ([4]; oral QD 28 days, 3 and 10 mpk): significantly reduced
liver steatosis (histology) [4, 8]: significantly reduced
serum total cholesterol, triglycerides and ALT [4, 8]: significantly reduced

suppression of plasma VAP-1/SSAO-specific amine oxidase activity ([6]; 10 mg, healthy participants (Example 2)): > 90%
inhibition of plasma SSAO activity ([6]; Day 1, all dose cohorts): Near complete inhibition
plasma methylamine levels ([6]; first daily dose 1, 4, 10 mg): increased in a dose proportional manner
duration of inhibition of plasma SSAO amine oxidase activity after cessation of dosing ([6]; multiple QD doses): up to 2 weeks
change from BL in cT1, liver fat fraction, liver enzymes, or cytokeratin-18 vs placebo ([7]; 10 mg QD 12 weeks): no statistically significant differences
inhibition at 10 mg ([7]; 10 mg QD, most subjects, by week 2, sustained through week 12, read-out: inhibition of plasma VAP-1 activity): > 98%
SMILES: COC1CCN(c2ncc(OC/C(=C/F)CN)cn2)CC1 [Compound 1, (E)-3-fluoro-2-(((2-(4-methoxypiperidin-1-yl)pyrimidin-5-yl)oxy)methyl)prop-2-en-1-amine]
Subject incidence of TEAEs considered possibly treatment-related [5, 9]: 1 (3.1)
Subject incidence of any TEAE [5, 9]: 5 (15.6)
TEAE frequency: constipation [5, 9]: 1 (3.1)
TEAE frequency: contact dermatitis [5, 9]: 2 (6.3)
TEAE frequency: dysgeusia [5, 9]: 1 (3.1)
TEAE frequency: headache [5, 9]: 1 (3.1)
TEAE frequency: sore throat [5, 9]: 1 (3.1)
TEAE frequency: upper respiratory tract infection [5, 9]: 1 (3.1)
Subject incidence of TEAEs considered possibly treatment-related [5, 10]: 0
Subject incidence of any TEAE [5, 10]: 0
TEAE frequency: constipation [5, 10]: 0
TEAE frequency: contact dermatitis [5, 10]: 0
TEAE frequency: dysgeusia [5, 10]: 0
TEAE frequency: headache [5, 10]: 0
TEAE frequency: sore throat [5, 10]: 0
TEAE frequency: upper respiratory tract infection [5, 10]: 0
Subject incidence of TEAEs considered possibly treatment-related [5, 11]: 0
Subject incidence of any TEAE [5, 11]: 0
TEAE frequency: constipation [5, 11]: 0
TEAE frequency: contact dermatitis [5, 11]: 0
TEAE frequency: dysgeusia [5, 11]: 0
TEAE frequency: headache [5, 11]: 0
TEAE frequency: sore throat [5, 11]: 0
TEAE frequency: upper respiratory tract infection [5, 11]: 0
Subject incidence of TEAEs considered possibly treatment-related [5, 12]: 0
Subject incidence of any TEAE [5, 12]: 2
TEAE frequency: constipation [5, 12]: 0
TEAE frequency: contact dermatitis [5, 12]: 2
TEAE frequency: dysgeusia [5, 12]: 0
TEAE frequency: headache [5, 12]: 0
TEAE frequency: sore throat [5, 12]: 1
TEAE frequency: upper respiratory tract infection [5, 12]: 0
Subject incidence of TEAEs considered possibly treatment-related [5, 13]: 1 (12.5)
Subject incidence of any TEAE [5, 13]: 3 (37.5)
TEAE frequency: constipation [5, 13]: 1 (12.5)
TEAE frequency: contact dermatitis [5, 13]: 0
TEAE frequency: dysgeusia [5, 13]: 1 (12.5)
TEAE frequency: headache [5, 13]: 1 (12.5)
TEAE frequency: sore throat [5, 13]: 0
TEAE frequency: upper respiratory tract infection [5, 13]: 1 (12.5)
plasma PK exposure, dose proportionality ([5]; single dose, between 1 and 10 mg): greater than dose proportional
safety and tolerability ([5]; single oral dose 1 mg to 10 mg): No clinically relevant adverse events or laboratory abnormalities; also recorded: safe and well tolerated
safety and tolerability ([7]; 10 mg QD 12 weeks): well-tolerated with a safety profile similar to placebo
